Laboratory results taken from US20230348450A1, “CARBOXYLIC ACID-CONTAINING COMPOUNDS AS MODULATORS OF BIS-PHOSPHOGLYCERATE MUTASE FOR THE TREATMENT OF SICKLE CELL DISEASE” (Genzyme Corporation, priority 2020, published 2023).

Biological target: hBPGM (Homo sapiens (Human), UniProt P07738)
Test: BPGM Synthase Assay
Assay type: biochemical
Settings: Table 6 additional results; read-out: huBPGM: synthase Enzyme IC50
Method: Example B1. BPGM Synthase Assay
The following materials were used in this assay: deionized water; Bisphosphoglycerate mutase (BPGM; Standard Buffer: 50 mM Tris, 0.01% Tween 20, pH 7.4); BPGM Reaction Buffer (50 mM Tris, 0.01% Tween 20, 3.23 mM KH2PO4, pH 7.4); dithiothreitol (DTT; Stock solution: 100 mM in Standard Buffer); 384-Well Black Assay Plate (Corning, P/N 3575); DMSO; BPGM Stock Solution (500 nM in BPGM Standard Buffer); Glyceraldehyde 3-phosphate dehydrogenase (GAPDH; Stock Solution: 40 U/mL in 20 mM Tris-HCL Buffer with 20% Glycerol, 1 mM EDTA, 1 mM DTT); Glyceraldehyde 3-phosphate (GAP; Stock Solution: 20 mM in BPGM Standard Buffer); 3-PG Stock Solution (500 μM in BPGM Standard Buffer); Nicotinamide adenine dinucleotide (NAD; Stock Solution: 50 mM in BPGM Standard Buffer); Koningic Acid (1 mM Stock in DMSO); Resazurin Stock Solution (10 mM in DMSO); Diaphorase Stock Solution (40 U/mL in BPGM Standard Buffer); DTT Reaction Buffer (1 mM DTT in BPGM Reaction Buffer); Enzyme Solution (5 nM BPGM, 0.4 U/mL GAPDH in DTT Reaction Buffer); GAPDH Solution (0.4 U/mL GAPDH in DTT Reaction Buffer); Substrate Solution (2 mM NAD, 20 μM 3PG, 800 μM GAP in DTT Reaction Buffer); and Resazurin Solution (5 U/mL Diaphorase, 500 μM Resazurin in BPGM Standard Buffer).
To the assay plate was added Enzyme Solution (20 uL) to columns 2-22 and 24 of the assay plate. To columns 1 and 23 was added GAPDH Solution (20 uL). A separate compound plate was prepared at the desired concentrations and all wells were normalized with 5% DMSO. The compound plate was incubated for 30 minutes at RT. Next, the substrate solution (20 μL) was dispensed to all reaction wells and the plate was incubated for 60 minutes at RT. Koningic acid (1 μL) was added and the plate was incubated for 10 minutes at RT. During this time period, the NADH fluorescence was read at ex: 360/em: 460. Next, Resazurin Solution (10 μL) was added to all reaction wells and the plate was incubated for 30 minutes at RT. The resorufin fluorescence was then read at ex:544/em:590.

Sequence of hBPGM (P07738 whole entry, looked up): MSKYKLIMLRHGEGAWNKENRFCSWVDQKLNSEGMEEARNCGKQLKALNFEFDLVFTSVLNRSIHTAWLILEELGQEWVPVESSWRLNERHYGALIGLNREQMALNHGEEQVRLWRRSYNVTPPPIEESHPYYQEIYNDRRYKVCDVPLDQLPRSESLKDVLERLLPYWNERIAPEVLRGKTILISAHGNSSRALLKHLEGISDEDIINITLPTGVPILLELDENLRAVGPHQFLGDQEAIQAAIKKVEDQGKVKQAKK

Compound | IC50
Cc1nc(CNC(C)c2cccnc2)sc1-c1csc(-c2cc(O)c(C(=O)O)cc2F)n1 (stereo not shown) [Example 170] | 1.2 µM
Cc1nc(CNC(C)C)sc1-c1csc(-c2cc(O)c(C(=O)O)cc2F)n1 [Example 176] | 0.89 µM
COC(=O)NCc1cc(C)c(-c2csc(-c3cc(O)c(C(=O)O)cc3F)n2)s1 [Example 179] | 0.6 µM
COC(=O)NCc1ccc(-c2csc(-c3cc(O)c(C(=O)O)cc3F)n2)cn1 [Example 187] | 1.7 µM
COC(=O)NCc1nc(C)c(-c2csc(-c3cc(N)c(C(=O)O)cc3F)n2)s1 [Example 195] | 1.2 µM
COC(=O)NCc1nc(C)c(-c2csc(-c3cc(NC(=O)OC)c(C(=O)O)cc3F)n2)s1 [Example 196] | 5.6 µM
Cc1nc(C)c(-c2nsc(-c3cc(O)c(C(=O)O)cc3F)n2)s1 [Example 205] | 1.1 µM
COC(=O)NCc1ccc(-c2csc(-c3cc(O)c(C(=O)O)cc3F)n2)c(C)n1 [Example 206] | 2 µM
Cc1nc(C)c(-c2nc(-c3cc(O)c(C(=O)O)cc3F)sc2C)s1 [Example 241] | 21 µM
CC(=O)NCCc1nc(C)c(-c2cccc(-c3ccc(C(=O)O)c(O)c3)c2)s1 [Example 258] | 11 µM
Cc1nc(CN2CCOCC2=O)sc1-c1cccc(-c2ccc(C(=O)O)c(O)c2)c1 [Example 261] | 20 µM
CNC(=O)CCc1nc(C)c(-c2cccc(-c3ccc(C(=O)O)c(O)c3)c2)s1 [Example 264] | 7 µM
Cc1nc(CCC(N)=O)sc1-c1cccc(-c2ccc(C(=O)O)c(O)c2)c1 [Example 265] | 7.8 µM
Cc1ccc(C#N)c(OCc2nc(C)c(-c3cccc(-c4ccc(C(=O)O)c(O)c4)c3)s2)n1 [Example 268] | 1.2 µM
Cc1nc(C)c(-c2coc(-c3ccc(C(=O)O)c(O)c3)n2)s1 [Example 271] | 8 µM
Cc1nc(Cc2ccccn2)sc1-c1cccc(-c2ccc(C(=O)O)cc2)c1 [Example 287] | 0.91 µM
Cc1nc(C)c(-c2ccn(-c3ccc(C(=O)O)c(O)c3)n2)s1 [Example 288] | 3.8 µM
Cc1nc(Cn2ccccc2=O)sc1-c1cccc(-c2ccc(C(=O)O)c(O)c2)c1 [Example 290] | 2.2 µM
Cc1nc(C)c(-c2csc(-c3ccc(C(=O)O)cc3)n2)s1 [Example 291] | 3.3 µM
Cc1nc(CC(F)(F)F)sc1-c1cccc(-c2ccc(C(=O)O)c(O)c2)c1 [Example 292] | 5.8 µM
Cc1nc(C)c(-c2cc(-c3ccc(C(=O)O)c(O)c3)ccn2)s1 [Example 293] | 9.3 µM

Compound | IC50
Cc1nc(C)c(-c2ccc(C#N)c(-c3ccc(C(=O)O)c(O)c3)c2)s1 [Example 294] | 44 µM
Cc1nc(Cn2c(C)ccc(C#N)c2=O)sc1-c1cccc(-c2ccc(C(=O)O)c(O)c2)c1 [Example 295] | 0.6 µM
Cc1nc(CN2CCOCC2)sc1-c1cccc(-c2ccc(C(=O)O)c(O)c2)c1 [Example 296] | 3.7 µM
Cc1nc(C)c(-c2cccc(-c3ccc(C(=O)O)cc3)c2F)s1 [Example 297] | 28 µM
Cc1nc(CN2CCCCC2)sc1-c1cccc(-c2ccc(C(=O)O)c(O)c2)c1 [Example 298] | 5 µM
Cc1nc(C)c(-c2cncc(-c3ccc(C(=O)O)c(O)c3)c2)s1 [Example 299] | 25 µM
Cc1cc(-c2ccc(C(=O)O)cc2)cc(-c2sc(C)nc2C)c1 [Example 300] | 160 µM
Cc1nc(C)c(-c2cc(-c3ccc(C(=O)O)cc3)ccc2O)s1 [Example 301] | > 250 µM
Cc1nc(C)c(-c2cccc(-c3ccc(C(=O)O)c(O)c3)n2)s1 [Example 302] | 1.2 µM
Cc1ccc(C#N)c(OCCc2cnn(-c3cccc(-c4ccc(C(=O)O)c(O)c4)c3)c2)n1 [Example 303] | 17 µM
Cc1nc(C)c(-c2ccc(O)c(-c3ccc(C(=O)O)cc3)c2)s1 [Example 304] | 54 µM
Cc1nc(C)c(-c2ccc(C)c(-c3ccc(C(=O)O)cc3)c2)s1 [Example 305] | 82 µM
Cc1nc(C)c(-c2cccc(-c3ccc(C(=O)O)cc3)c2C)s1 [Example 306] | > 250 µM
Cc1nc(C)c(-c2cc(-c3ccc(C(=O)O)cc3)ccc2C)s1 [Example 307] | > 250 µM
Cc1nc(Cc2cccc(C#N)c2)sc1-c1cccc(-c2ccc(C(=O)O)c(O)c2)c1 [Example 308] | 1 µM
Cc1nc(C)c(-c2ccnc(-c3ccc(C(=O)O)c(O)c3)c2)s1 [Example 310] | 2 µM
Cc1ccc(C#N)c(OCCc2ccn(-c3cccc(-c4ccc(C(=O)O)c(O)c4)c3)n2)n1 [Example 311] | 21 µM
Cc1nc(Cc2ccc(C(F)(F)F)cc2)sc1-c1cccc(-c2ccc(C(=O)O)c(O)c2)c1 [Example 312] | 6.6 µM
Cc1nc(CC2CCCCC2)sc1-c1cccc(-c2ccc(C(=O)O)c(O)c2)c1 [Example 313] | 9.1 µM
Cc1nc(C)c(-c2cccc(-c3ccc(C(=O)O)c(C(F)(F)F)c3)c2)s1 [Example 314] | 100 µM
Cc1nc(C)c(-c2csc(-c3ccc(C(=O)O)c(O)c3)n2)s1 [Example 315] | 1.4 µM

Compound | IC50
Cc1nc(Cc2cccc(C(F)(F)F)c2)sc1-c1cccc(-c2ccc(C(=O)O)c(O)c2)c1 [Example 317] | 3 µM
Cc1nc(C)c(-c2cccc(-c3ccc(O)c(C(=O)O)c3)c2)s1 [Example 318] | 4.8 µM
Cc1nc(C)c(-c2ccc(=O)n(-c3ccc(C(=O)O)c(O)c3)c2)s1 [Example 319] | > 250 µM
Cc1nc(Cc2ccccc2C(F)(F)F)sc1-c1cccc(-c2ccc(C(=O)O)c(O)c2)c1 [Example 320] | 7 µM
Cc1nc(C)c(-c2csc(-c3ccc(O)c(C(=O)O)c3)n2)s1 [Example 321] | 7.3 µM
Cc1ccc(C#N)c(OCC(=O)N2CC(c3cccc(-c4ccc(C(=O)O)cc4)c3)C2)n1 [Example 322] | > 250 µM
CCc1nc(C)c(-c2cccc(-c3ccc(C(=O)O)c(O)c3)c2)s1 [Example 323] | 1.6 µM
Cc1nc(C(C)C)sc1-c1cccc(-c2ccc(C(=O)O)c(O)c2)c1 [Example 324] | 2.3 µM
Cc1ncc(-c2cccc(-c3ccc(C(=O)O)c(O)c3)c2)s1 [Example 325] | 3.5 µM
Cc1nc(C)c(-c2cccc(-c3ccc(C(=O)O)cc3)c2)s1 [Example 326] | 6.4 µM
Cc1ccc(C#N)c(OCC(=O)N2CCC(c3cccc(-c4ccc(C(=O)O)c(O)c4)c3)C2)n1 (stereo not shown) [Example 328] | 45 µM
Cc1nc(C)c(-c2cccc(-c3ccc(C(=O)O)c(O)c3)c2)s1 [Example 329] | 2.3 µM
Cc1ccc(C#N)c(OCCn2cc(-c3cccc(-c4ccc(C(=O)O)c(O)c4)c3)c(C)n2)n1 [Example 330] | 6.6 µM
COC(=O)NCc1nc(C)c(-c2csc(-c3ccc(C(=O)NS(=O)(=O)c4cccc(OCC(=O)O)c4)cc3)n2)s1 [Example 331] | > 25 µM
Cc1ccc(C#N)c(OCC(=O)N/N=C/c2cccc(-c3cc(O)c(C(=O)O)cc3F)c2)n1 [Example 332] | 0.45 µM
Cc1nc(C)c(/C=C/c2ccc(C(=O)O)c(O)c2)s1 [Example 333] | 11 µM
Cc1nc(COc2ncccn2)sc1-c1cccc(-c2ccc3c(C(=O)O)c[nH]c3c2)n1 [Example 334] | 1.7 µM
Cc1nc(COCC(C)(C)O)sc1-c1cccc(-c2ccc(C(=O)O)c(O)c2)c1 [Example 335] | 0.31 µM
Cc1nc(C)c(CCOc2ccc(C(=O)O)c(O)c2)s1 [Example 336] | > 25 µM
